Patent US20040009956A1, “Inhibition of protein tyrosine phosphatases and SH2 domains by a neutral phosphotyrosine mimetic” (priority 2002, published 2004)
“And” between values parts separate entries of the source, which are not always exact repeats. Identical values can stand only once. Like-named read-outs stand apart in the source and are kept apart here. One block for each molecule: values may come before it.

Tests used:
Format in all cases: biochemical
[1] = molecular target: T1, PTP1B (Homo sapiens, UniProt P18031); assay: PTP inhibition assay (pNPP hydrolysis), PTP1B
T1 construct: made in house; host or cells: Escherichia coli
T1 sequence (P18031 1-435): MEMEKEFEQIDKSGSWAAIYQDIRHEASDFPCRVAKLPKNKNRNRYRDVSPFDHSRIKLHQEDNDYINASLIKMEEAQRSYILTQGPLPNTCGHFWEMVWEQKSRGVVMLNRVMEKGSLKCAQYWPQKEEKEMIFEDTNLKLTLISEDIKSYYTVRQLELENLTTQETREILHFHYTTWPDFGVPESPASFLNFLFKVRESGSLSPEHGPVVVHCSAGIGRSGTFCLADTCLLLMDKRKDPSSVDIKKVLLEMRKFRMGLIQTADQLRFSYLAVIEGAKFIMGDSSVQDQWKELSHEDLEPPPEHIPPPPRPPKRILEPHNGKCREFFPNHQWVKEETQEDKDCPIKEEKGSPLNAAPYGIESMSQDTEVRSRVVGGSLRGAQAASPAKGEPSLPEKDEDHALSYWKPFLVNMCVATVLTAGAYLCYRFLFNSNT
Procedure: (§1) PTP Inhibition Assays. Stock solutions of inhibitors were prepared in dimethyl sulfoxide (DMSO) and their concentrations were calculated from the known inhibitor masses and solvent volumes. A typical reaction (total volume 1 mL) contained 50 mM HEPES (pH 7.4), 1 mM EDTA, 1 mM tris(carboxyethyl)phosphine (TCEP), 50 mM NaCl, 5% (v/v) DMSO, 0.1-0.2 μM PTP, and 0-2000 μM inhibitor. After incubation of the enzyme with the inhibitor for 1 h at room temperature, the reaction was initiated by the addition of 1.0 mM p-nitrophenyl phosphate (pNPP). The reaction progress was monitored at 405 nm on a Perkin-Elmer UV-Vis spectrophotometer. The IC50 values were determined by plotting the remaining activity as a function of inhibitor concentration, and the K1* values were obtained by fitting the data to the Michaelis-Menten equation. To determine the K1 value, the reaction was initiated by addition of enzyme (0.2 μM) into the above reaction mixture, which also contained 1.0 mM pNPP. The reaction was monitored continuously on the UV-Vis spectrophotometer and the initial reaction rates (<15 s) were fitted to the Michaelis-Menten equation.
To determine the rate constant κ6, the enzyme (1.0 μM) was incubated with 50-100 μM inhibitor in 100 μL of the above reaction buffer for 3 h at room temperature. The mixture was rapidly diluted into 900 μL of the same reaction buffer containing 1.0 mM pNPP (without inhibitor). Reactivation of PTP activity was monitored at 405 nm and the progress curves were fit to the equation
where νs is the final steady-state velocity. The rate constant κ5 was calculated using the equation
Inactivation of Inhibitor Cinn-GEE by Cysteamine. Cinn-GEE (1 mM) was incubated with 100 mM cysteamine hydrochloride (which had been neutralized by the addition of 1.0 equivalent of NaOH) in 100 μL of a 97:3 DMSO/H2O mixture for 24 h. The treated inhibitor was then used in inhibition assays as described above. As a control, inhibition assay also performed with the same amount of cysteamine hydrochloride/NaOH solution.

[2] = molecular target: T2, SHP-1 (Homo sapiens, UniProt P29350); assay: PTP inhibition assay (pNPP hydrolysis), catalytic domain of SHP-1, SHP-1(ΔSH2)
T2 construct: The catalytic domain of SHP-1, SHP-1(ΔSH2), was purified from a recombinant Escherichia coli strain; made in house; host or cells: Escherichia coli
Procedure: as §1

[3] = molecular target: T3, VHR (Homo sapiens, UniProt P51452); assay: PTP inhibition assay (pNPP hydrolysis), dual-specificity phosphatase VHR
T3 construct: made in house; host or cells: Escherichia coli
Procedure: as §1

[4] = 1 h preincubation with inhibitor, 1.0 mM pNPP, pH 7.4
[5] = slow-binding inhibition, 1 h preincubation, 1.0 mM pNPP, read-out: KI* (overall equilibrium inhibition constant)

T3 sequence (P51452 whole entry, species assumed): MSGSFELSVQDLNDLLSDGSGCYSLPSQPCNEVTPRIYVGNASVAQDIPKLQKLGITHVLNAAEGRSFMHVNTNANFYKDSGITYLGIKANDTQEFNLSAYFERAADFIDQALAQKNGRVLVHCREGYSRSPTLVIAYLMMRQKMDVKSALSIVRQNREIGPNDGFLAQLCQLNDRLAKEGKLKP
T2 sequence (P29350 214-595): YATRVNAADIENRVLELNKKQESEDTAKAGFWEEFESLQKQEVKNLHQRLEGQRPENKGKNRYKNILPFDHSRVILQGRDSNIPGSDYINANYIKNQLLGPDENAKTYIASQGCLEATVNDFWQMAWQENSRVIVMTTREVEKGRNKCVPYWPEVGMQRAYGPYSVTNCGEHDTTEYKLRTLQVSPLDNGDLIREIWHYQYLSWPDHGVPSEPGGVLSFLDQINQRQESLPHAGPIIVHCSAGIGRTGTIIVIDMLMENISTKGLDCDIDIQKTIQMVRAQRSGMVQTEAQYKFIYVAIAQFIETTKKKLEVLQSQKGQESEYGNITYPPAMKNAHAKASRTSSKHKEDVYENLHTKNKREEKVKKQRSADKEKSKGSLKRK

Compound: O=Cc1ccccc1 [Compound 1, Benzaldehyde, reference compound]
Inhibitory activity (in words) [1]: least active | Inhibitory activity (in words) [2]: least active | Inhibitory activity (in words) [3]: least active

IC50 [1, 4]: 970 µM | IC50 [2, 4]: 230 µM | IC50 [3, 4]: > 2000 µM | Inhibition against VHR ([3]; up to 2 mM): no significant inhibition
Compound: O=CC=Cc1ccc(C(=O)O)cc1 [Compound 3, 4-(3-Oxo-1-propenyl)benzoic acid]

κ6, rate for reactivation of PTP1B ([1]; E·I* complex preformed 3 h, diluted 10-fold into 1.0 mM pNPP): 0.56 min⁻¹ | κ5, rate for conversion of noncovalent E·I complex to covalent complex ([1]; calculated from K1*=K1κ6/(κ5+κ6)): 56 min⁻¹ | Ki ([1]; initial reaction rates (<15 s), reaction initiated by enzyme, read-out: K1, equilibrium inhibition constant for the initial complex E·I): 550 µM | Inhibitory activity against PTP1B after treatment of inhibitor with cysteamine ([1]; prior treatment with excess cysteamine): abolished | Ki [1, 5]: 5.4 µM and 5.42 µM | Ki [2, 5]: 10.7 µM | Ki [3, 5]: 288 µM
Compound: NC(=O)C(CCC(=O)O)NC(=O)C(CCC(=O)O)NC(=O)CNC(=O)c1ccc(C=CC=O)cc1 (stereo not drawn) [Compound 5, N-[4-(3-Oxo-1-propenyl)benzoyl]-Gly-Glu-Glu-NH2]
